pIC50: −log10 of the molar value. Where no end group is shown, it is not given here.
What was measured:
[1] = target: HLA DRB1 *0101 (Homo sapiens, UniProt P01903+P01911, A100R/D57E/F55L/F60I/F76Y/I96L/L162R/M171V/P40L/Q125E/R42F/V115G/Y59C); assay: IC50nM to purified HLA | DRB1 *0101
Method: (§1) Table printed on a drawing sheet, FIG. 1 (contd.)
Head of the field: IC50nM to purified HLA | DRB1 *0101
(§2) First copying reader's note: Continued from the preceding sheet of FIG. 1; decimal commas are used, the analog names give the substituted residues and positions in PADRE, and some values are printed in italics or bold and some SEQ ID NOs bold and underlined without a legend on this sheet.
Where the first naming reader finds the target: head: IC50nM to purified HLA | DRB1 *0101

[2] = target: HLA DRB1 *0301 (Homo sapiens, UniProt P01903+P01911, A100K/A102G/A103R/A169T/F55Y/I96L/K41T/L162R/M171V/P40S/Q125H/Q178H/Q39Y/R42S/S66N/T106N/T262R/W38E/Y61H); assay: IC50nM to purified HLA | DRB1 *0301
Method: as §1
Head of the field: IC50nM to purified HLA | DRB1 *0301
as §2
Where the first naming reader finds the target: head: IC50nM to purified HLA | DRB1 *0301

[3] = target: HLA DRB1 *0401 (Homo sapiens, UniProt P01903+P01911, A100K/A169T/F76Y/I96L/K127E/L162R/M171V/N62H/P40V/Q125Y/R42H/S133A/S149N/S66Y/V115G/V209L/W38E); assay: IC50nM to purified HLA | DRB1 *0401
Method: as §1
Head of the field: IC50nM to purified HLA | DRB1 *0401
as §2
Where the first naming reader finds the target: head: IC50nM to purified HLA | DRB1 *0401

[4] = target: HLA DRB1 *0404 (Homo sapiens, UniProt P01903+P01911, A100R/A169T/F76Y/I96L/K127E/L162R/M171V/N62H/P40V/Q125Y/R42H/S133A/S149N/S66Y/V209L/W38E); assay: IC50nM to purified HLA | DRB1 *0404
Method: as §1
Head of the field: IC50nM to purified HLA | DRB1 *0404
as §2
Where the first naming reader finds the target: head: IC50nM to purified HLA | DRB1 *0404

[5] = target: HLA DRB1 *1101 (Homo sapiens, UniProt P01903+P01911, A100R/A169T/A87E/I96F/K41T/L162R/M171V/P40S/Q125H/Q178H/Q39Y/Q99D/R42S/S66Y/T262R/V115G/W38E); assay: IC50nM to purified HLA | DRB1 *1101
Method: as §1
Head of the field: IC50nM to purified HLA | DRB1 *1101
as §2
Where the first naming reader finds the target: head: IC50nM to purified HLA | DRB1 *1101

[6] = target: HLA DRB1 *1501 (Homo sapiens, UniProt P01903+P01911); assay: IC50nM to purified HLA | DRB1 *1501
Method: as §1
Head of the field: IC50nM to purified HLA | DRB1 *1501
as §2
Where the first naming reader finds the target: head: IC50nM to purified HLA | DRB1 *1501

[7] = target: HLA DRB4 *0101 (Homo sapiens, UniProt P01903+P13762, G164S); assay: IC50nM to purified HLA | DRB4 *0101
Method: as §1
Head of the field: IC50nM to purified HLA | DRB4 *0101
as §2
Where the first naming reader finds the target: head: IC50nM to purified HLA | DRB4 *0101

[8] = target: HLA DRB1 *0405 (Homo sapiens, UniProt P01903+P01911, A100R/A169T/D86S/F76Y/I96L/K127E/L162R/M171V/N62H/P40V/Q125Y/R42H/S133A/S149N/S66Y/V115G/V209L/W38E); assay: IC50nM to purified HLA | DRB1 *0405
Method: as §1
Head of the field: IC50nM to purified HLA | DRB1 *0405
as §2
Where the first naming reader finds the target: head: IC50nM to purified HLA | DRB1 *0405

[9] = target: HLA DRB1 *0701 (Homo sapiens, UniProt P01903+P01911, A100R/A102G/A103Q/D57E/D86V/E43K/F76Y/K127E/L162R/M171V/P40G/Q125H/Q99D/R33Q/R42Y/R54Q/S133A/S66F/T210M/V115G/Y107V/Y59L/Y89S); assay: IC50nM to purified HLA | DRB1 *0701
Method: as §1
Head of the field: IC50nM to purified HLA | DRB1 *0701
as §2
Where the first naming reader finds the target: head: IC50nM to purified HLA | DRB1 *0701

[10] = target: HLA DRB1 *0802 (Homo sapiens, UniProt P01903+P01911, A100R/A103L/A169T/F76Y/H45Y/I96F/K41T/L162R/M171V/P40S/Q125H/Q178H/Q39Y/Q99D/R218S/R42G/S66Y/V115G/W38E); assay: IC50nM to purified HLA | DRB1 *0802
Method: as §1
Head of the field: IC50nM to purified HLA | DRB1 *0802
as §2
Where the first naming reader finds the target: head: IC50nM to purified HLA | DRB1 *0802

[11] = target: HLA DRB1 *0901 (Homo sapiens, UniProt P01903+P01911, A100R/A103E/D57H/D86V/F55Y/F60I/F76Y/I96F/K127E/L162R/M171V/P40D/Q125H/Q99R/R33Q/R42F/S133A/S66N/T210M/V115G/W38K/Y107V/Y59G/Y89S); assay: IC50nM to purified HLA | DRB1 *0901
Method: as §1
Head of the field: IC50nM to purified HLA | DRB1 *0901
as §2
Where the first naming reader finds the target: head: IC50nM to purified HLA | DRB1 *0901

[12] = target: HLA DRB1 *1302 (Homo sapiens, UniProt P01903+P01911, A100E/A169T/K41T/L162R/M171V/P40S/Q125H/Q178H/Q39Y/Q99D/R42S/S66N/T262R/V115G/W38E/Y61H); assay: IC50nM to purified HLA | DRB1 *1302
Method: as §1
Head of the field: IC50nM to purified HLA | DRB1 *1302
as §2
Where the first naming reader finds the target: head: IC50nM to purified HLA | DRB1 *1302

[13] = target: HLA DRB5 *0101 (Homo sapiens, UniProt P01903+Q30154); assay: IC50nM to purified HLA | DRB5 *0101
Method: as §1
Head of the field: IC50nM to purified HLA | DRB5 *0101
as §2
Where the first naming reader finds the target: head: IC50nM to purified HLA | DRB5 *0101

Sequence of HLA DRB4 *0101 (P01903 26-254 limits assumed): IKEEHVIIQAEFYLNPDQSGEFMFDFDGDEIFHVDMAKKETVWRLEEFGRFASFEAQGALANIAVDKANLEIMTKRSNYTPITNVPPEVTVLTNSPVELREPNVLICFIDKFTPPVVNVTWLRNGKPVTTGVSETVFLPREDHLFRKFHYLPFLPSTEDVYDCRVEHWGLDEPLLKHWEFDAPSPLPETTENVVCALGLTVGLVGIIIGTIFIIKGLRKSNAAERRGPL
Sequence of HLA DRB4 *0101 (P13762 whole entry G164S): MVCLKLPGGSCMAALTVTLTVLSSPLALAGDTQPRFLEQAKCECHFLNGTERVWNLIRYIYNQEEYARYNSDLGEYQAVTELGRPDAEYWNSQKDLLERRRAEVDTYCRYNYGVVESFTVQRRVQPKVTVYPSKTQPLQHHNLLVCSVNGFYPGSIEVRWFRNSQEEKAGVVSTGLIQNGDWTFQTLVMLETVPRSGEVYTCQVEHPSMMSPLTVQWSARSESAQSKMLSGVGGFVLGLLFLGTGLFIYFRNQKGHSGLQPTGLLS
Sequence of HLA DRB1 *1101 (P01903 26-254 limits assumed, other chains not shown): as the sequence (P01903 26-254 limits assumed) above
Sequence of HLA DRB1 *0301 (P01903 26-254 limits assumed, other chains not shown): as the sequence (P01903 26-254 limits assumed) above
Sequence of HLA DRB1 *1302 (P01903 26-254 limits assumed, other chains not shown): as the sequence (P01903 26-254 limits assumed) above

Sequence	pIC50 [1]	pIC50 [2]	pIC50 [3]	pIC50 [4]	pIC50 [5]	pIC50 [6]	pIC50 [7]	pIC50 [8]	pIC50 [9]	pIC50 [10]	pIC50 [11]	pIC50 [12]	pIC50 [13]
AAADFVAAFTLHAAA [SEQ ID NO: 43]	8.14	6.13	8.33	8.43	7.36	7.01	5.98	7.96	6.65	–	–	–	–
AAADFVAAWTLHAAA [SEQ ID NO: 41]	8.31	6.60	8.28	8.15	7.55	7.05	–	7.57	6.82	7.62	7.40	–	–
AAADFVAAWTLKAAA [SEQ ID NO: 40]	8.15	6.48	8.29	8.40	7.72	7.19	5.81	7.52	6.71	7.77	–	5.40	–
AAADFVAAYTLHAAA [SEQ ID NO: 42]	8.32	6.54	8.35	8.28	7.40	7.72	–	7.68	6.74	7.85	7.49	–	–
AAAEFVAAFTLHAAA [SEQ ID NO: 48]	8.21	–	8.68	8.59	7.32	7.30	6.88	7.85	6.85	7.72	7.74	5.70	–
AAAEFVAANTLHAAA [SEQ ID NO: 49]	8.05	–	–	8.16	7.15	6.86	6.06	7.36	–	7.43	7.06	–	–
AAAEFVAAWTLKAAA [SEQ ID NO: 45]	8.60	6.77	8.42	8.55	7.35	7.25	6.48	8.01	–	7.80	7.39	6.08	8.17
AAAHFVAAFTLHAAA [SEQ ID NO: 28]	8.40	6.64	8.66	8.51	8.09	7.89	7.00	–	–	7.96	7.62	–	–
AAAHFVAAFTLKADA [SEQ ID NO: 33]	8.17	–	7.82	8.02	7.12	7.43	6.02	7.72	7.08	–	7.52	6.23	–
AAAHFVAAFTLKAEA [SEQ ID NO: 38]	–	–	8.19	8.09	7.39	7.51	–	8.09	–	7.72	7.34	6.10	7.72
AAAHFVAANTLKAEA [SEQ ID NO: 39]	8.15	–	7.92	7.85	–	–	6.03	7.44	7.08	7.19	–	6.63	–
AAAHFVAAWTLKADA [SEQ ID NO: 31]	8.29	–	8.07	8.15	–	–	5.68	7.80	–	7.62	–	6.06	7.64
AAAHFVAAWTLKAEA [SEQ ID NO: 36]	8.29	–	8.19	–	7.28	7.70	6.17	–	–	7.66	7.36	5.96	7.74
AAAHFVAAYTLKADA [SEQ ID NO: 32]	8.27	–	7.96	8.02	–	7.96	–	–	7.32	–	7.51	–	7.77
AAAHFVAAYTLKAEA [SEQ ID NO: 37]	8.16	–	8.12	8.28	7.36	8.00	6.14	7.96	–	–	7.46	6.00	7.80
AAAKFVAAWTLKADA [SEQ ID NO: 30]	8.30	5.94	8.14	8.01	–	7.72	–	7.77	–	–	7.57	6.09	7.72
AAAKFVAAWTLKAEA [SEQ ID NO: 35]	–	–	8.19	–	7.44	7.64	6.15	8.08	–	7.68	7.39	–	7.77
AAANFVAAWTLHAAA [SEQ ID NO: 51]	8.35	6.83	–	–	7.96	8.00	6.60	8.12	–	7.89	–	–	–
AAANFVAAWTLKAAA [SEQ ID NO: 50]	8.36	6.43	–	8.23	7.85	7.92	–	7.74	–	8.07	–	–	8.06
AAANFVAAYTLHAAA [SEQ ID NO: 52]	8.57	6.77	–	–	7.80	8.38	–	7.72	7.17	–	–	5.85	–

Reference: patent US9789181B2, “PAN-DR binding polypeptides and uses thereof” (Epimmune Inc., priority 2009, dated 2017)
